The record followed here is ChEMBL document CHEMBL1130684, “Potent, non-thiol inhibitors of farnesyltransferase” (Bioorg Med Chem Lett, 1998).

The target of the first experiment is T1, Protein farnesyltransferase (Homo sapiens, UniProt P49354+P49356). The experiment in a line: Inhibition of FTase-catalyzed incorporation of [3H]- FPP radioligand into recombinant Ha-Ras by 50% at an enzyme concentration of 1 nM. The class given is protein-complex assay.
For the compound `CCC(C)[C@@H](CN(CC(=O)N[C@@H](CCSC)C(=O)O)Cc1cccc2ccccc12)NC(=O)CS(=O)(=O)Cc1ccccc1` (some centres not stated), the IC50 was found to be 0.31 µM. Same read-out and setting: as for `CCC(C)[C@@H](CN(CC(=O)N[C@@H](CCSC)C(=O)O)Cc1cccc2ccccc12)NC(=O)CSc1ccncc1` (some centres not stated), the figure is 0.017 µM; as for `CCC(C)[C@@H](CN(CC(=O)N[C@@H](CCSC)C(=O)O)Cc1ccccc1)NC(=O)CSc1nnc(N)s1` (some centres not stated), greater than 10 µM; as for `CCC(C)[C@@H](CN(CC(=O)N[C@@H](CCSC)C(=O)O)Cc1cccc2ccccc12)NC(=O)CN(Cc1ccccc1)C(=O)OC(C)(C)C` (some centres not stated), 0.26 µM. On the same count and under the same terms, as for `CCC(C)[C@@H](CN(CC(=O)N[C@@H](CCSC)C(=O)O)Cc1ccccc1)NC(=O)CSc1nc2ccccc2[nH]1` (some centres not stated), the figure is greater than 10 µM; as for `CCC(C)[C@@H](CN(CC(=O)N[C@@H](CCSC)C(=O)O)Cc1cccc2ccccc12)NC(=O)CSCc1ccncc1` (some centres not stated), 0.23 µM; as for `CCC(C)[C@@H](CN(CC(=O)N[C@@H](CCSC)C(=O)O)Cc1cccc2ccccc12)NC(=O)CNCc1ccccc1` (some centres not stated), 0.19 µM. Same read-out and setting: as for `CCC(C)[C@@H](CN(CC(=O)N[C@@H](CCSC)C(=O)O)Cc1ccccc1)NC(=O)CSc1nc[nH]n1` (some centres not stated), the figure is greater than 10 µM; as for `CCC(C)[C@@H](CN(CC(=O)N[C@@H](CCSC)C(=O)O)Cc1cccc2ccccc12)NC(=O)CN(Cc1ccccc1)C(C)=O` (some centres not stated), 0.07 µM.

Regarding `CCC(C)[C@@H](CN(CC(=O)N[C@@H](CCSC)C(=O)O)Cc1cccc2ccccc12)NC(=O)CSCc1ccc(OC)cc1` (some centres not stated), the 50% inhibitory concentration (IC50) is 0.017 µM. For `CCC(C)[C@@H](CN(CC(=O)N[C@@H](CCSC)C(=O)O)Cc1cccc2ccccc12)NC(=O)C[S+]([O-])Cc1ccccc1` (some centres not stated), the IC50 amounted to 0.16 µM.

Consider `CCC(C)[C@@H](CN(CC(=O)N[C@@H](CCSC)C(=O)O)Cc1cccc2ccccc12)NC(=O)CSCCc1ccccc1` (some centres not stated), for which the IC50 turned out to be 0.12 µM. The same measure, in the same setting: the value for `CCC(C)[C@@H](CN(CC(=O)N[C@@H](CCSC)C(=O)O)Cc1cccc2ccccc12)NC(=O)CCCCc1ccccc1` (some centres not stated) was 0.23 µM; that for `CCC(C)[C@@H](CN(CC(=O)N[C@@H](CCSC)C(=O)O)Cc1cccc2ccccc12)NC(=O)CSc1ccccc1` (some centres not stated) was 0.051 µM; that for `CCC(C)[C@@H](CN(CC(=O)N[C@@H](CCSC)C(=O)O)Cc1cccc2ccccc12)NC(=O)CSCc1ccccc1[N+](=O)[O-]` (some centres not stated) was 0.086 µM. On to `CCC(C)[C@@H](CN(CC(=O)N[C@@H](CCSC)C(=O)O)Cc1cccc2ccccc12)NC(=O)CSCc1ccccc1` (some centres not stated), for which the IC50 came to 0.036 µM. `CCC(C)[C@@H](CN(CC(=O)N[C@@H](CCSC)C(=O)O)Cc1cccc2ccccc12)NC(=O)CSCc1ccc(C#N)cc1` (some centres not stated): the IC50 was found to be 0.0054 µM. Same read-out and setting: the value for `CCC(C)[C@@H](CN(CC(=O)N[C@@H](CCSC)C(=O)O)Cc1cccc2ccccc12)NC(=O)CSCc1cccc([N+](=O)[O-])c1` (some centres not stated) was 0.023 µM; that for `CCC(C)[C@@H](CN(CC(=O)N[C@@H](CCSC)C(=O)O)Cc1cccc2ccccc12)NC(=O)COCc1ccccc1` (some centres not stated) was 0.23 µM; that for `CCC(C)[C@@H](CN(CC(=O)N[C@@H](CCSC)C(=O)O)Cc1cccc2ccccc12)NC(=O)CSCc1ccc(-c2ccccc2)cc1` (some centres not stated) was 0.029 µM. The same measure, in the same setting: the value for `CCC(C)[C@@H](CN(CC(=O)N[C@@H](CCSC)C(=O)O)Cc1cccc2ccccc12)NC(=O)CCCc1ccc([N+](=O)[O-])cc1` (some centres not stated) was 0.019 µM; that for `CCC(C)[C@@H](CN(CC(=O)N[C@@H](CCSC)C(=O)O)Cc1cccc2ccccc12)NC(=O)CSCc1ccc(C)cc1` (some centres not stated) was 0.014 µM; that for `CCC(C)[C@@H](CN(CC(=O)N[C@@H](CCSC)C(=O)O)Cc1cccc2ccccc12)NC(=O)CSCc1ccc([N+](=O)[O-])cc1` (some centres not stated) was 0.0062 µM.

Regarding `CCC(C)[C@@H](CN(CC(=O)N[C@@H](CCSC)C(=O)O)Cc1cccc2ccccc12)NC(=O)CSCc1ccc(S(C)(=O)=O)cc1` (some centres not stated), the IC50 came out at 0.016 µM. Same read-out and setting: as for `CCC(C)[C@@H](CN(CC(=O)N[C@@H](CCSC)C(=O)O)Cc1cccc2ccccc12)NC(=O)CSCc1ccc(C(F)(F)F)cc1` (some centres not stated), the figure is 0.037 µM.

In the case of `CCC(C)[C@@H](CN(CC(=O)N[C@@H](CCSC)C(=O)O)Cc1cccc2ccccc12)NCc1cnc[nH]1` (some centres not stated), the IC50 was 0.031 µM.

In a further experiment the target is T1, Protein farnesyltransferase. The experiment can be described thus: Inhibition of [3H]- FPP incorporation into recombinant Ha-Ras by farnesyl transferase at 10 pM. In kind it is protein-complex assay.
For the compound `CCC(C)[C@@H](CN(CC(=O)N[C@@H](CCSC)C(=O)O)Cc1cccc2ccccc12)NC[C@@H](N)CS` (some centres not stated), the IC50 amounted to 0.000123 µM.

What is called IC50 is the midpoint of a concentration-inhibition curve.
